Key:
Format in all cases: in vivo
[1] = system: sedge, umbrella (small-flower umbrella sedge, Cyperus difformis); assay: Test B flooded paddy test, plant response rating; settings: 250 g ai/ha; Flood; scale of 0 to 100 where 0 is no effect and 100 is complete control; 13 to 15 days
Excerpt: (§1) At time of treatment, test pots were flooded to 3 cm above the soil surface, treated by application of test compounds directly to the paddy water, and then maintained at that water depth for the duration of the test. Treated plants and controls were maintained in a greenhouse for 13 to 15 days, after which time all species were compared to controls and visually evaluated. […] A dash (-) response means no test result.

[2] = system: rice (Oryza sativa); assay: Test B flooded paddy test, plant response rating; settings: 250 g ai/ha; Flood; scale of 0 to 100 where 0 is no effect and 100 is complete control; 13 to 15 days
Excerpt: as §1

[3] = system: barnyardgrass (Echinochloa crus-galli); assay: Test B flooded paddy test, plant response rating; settings: 250 g ai/ha; Flood; scale of 0 to 100 where 0 is no effect and 100 is complete control; 13 to 15 days
Excerpt: as §1

[4] = system: ducksalad (Heteranthera limosa); assay: Test B flooded paddy test, plant response rating; settings: 250 g ai/ha; Flood; scale of 0 to 100 where 0 is no effect and 100 is complete control; 13 to 15 days
Excerpt: as §1

[5] = system: galium (catchweed bedstraw, Galium aparine); assay: Test A postemergence, visual injury rating; settings: 0 is no effect, 100 is complete control; for Galium plant response rating: 31 g ai/ha, 0 to 100 scale, approximately 10 days; for Galium plant response rating (0 to 100 scale): 125 g ai/ha
Excerpt: (§2) Seeds of plant species selected from barnyardgrass (Echinochloa crus-galli), kochia (Kochia scoparia), ragweed (common ragweed, Ambrosia elatior), Italian ryegrass (Lolium multiflorum), large (Lg) crabgrass (Digitaria sanguinalis), giant foxtail (Setaria faberii), morningglory (Ipomoea spp.), pigweed (Amaranthus retroflexus), velvetleaf (Abutilon theophrasti), wheat (Triticum aestivum), and corn (Zea mays) were planted into a blend of loam soil and sand and treated preemergence with a directed soil spray using test chemicals formulated in a non-phytotoxic solvent mixture which included a surfactant.
(§3) At the same time, plants selected from these crop and weed species and also blackgrass (Alopecurus myosuroides), and galium (catchweed bedstraw, Galium aparine) were planted in pots containing the same blend of loam soil and sand and treated with postemergence applications of test chemicals formulated in the same manner. Plants ranged in height from 2 to 10 cm and were in the one- to two-leaf stage for the postemergence treatment. Treated plants and untreated controls were maintained in a greenhouse for approximately 10 days, after which time all treated plants were compared to untreated controls and visually evaluated for injury. Plant response ratings, summarized in Table A, are based on a 0 to 100 scale where 0 is no effect and 100 is complete control. A dash (-) response means no test result.

[6] = system: ragweed (common ragweed, Ambrosia elatior); assay: Test A postemergence, visual injury rating; settings: 0 is no effect, 100 is complete control; for Ragweed plant response rating: 31 g ai/ha, 0 to 100 scale, approximately 10 days; for Ragweed plant response rating (0 to 100 scale): 125 g ai/ha
Excerpt: as §2, §3

[7] = system: corn (Zea mays); assay: Test A postemergence, visual injury rating; settings: 0 is no effect, 100 is complete control; for Corn plant response rating: 31 g ai/ha, 0 to 100 scale, approximately 10 days; for Corn plant response rating (0 to 100 scale): 125 g ai/ha
Excerpt: as §2, §3

[8] = system: wheat (Triticum aestivum); assay: Test A postemergence, visual injury rating; settings: 0 is no effect, 100 is complete control; for Wheat plant response rating: 31 g ai/ha, 0 to 100 scale, approximately 10 days; for Wheat plant response rating (0 to 100 scale): 125 g ai/ha
Excerpt: as §2, §3

[9] = system: Italian ryegrass (Lolium multiflorum); assay: Test A postemergence, visual injury rating; settings: 0 is no effect, 100 is complete control; for Ryegrass, Italian plant response rating: 31 g ai/ha, 0 to 100 scale, approximately 10 days; for Ryegrass, Italian plant response rating (0 to 100 scale): 125 g ai/ha
Excerpt: as §2, §3

[10] = system: pigweed (Amaranthus retroflexus); assay: Test A postemergence, visual injury rating; settings: 0 is no effect, 100 is complete control; for Pigweed plant response rating: 31 g ai/ha, 0 to 100 scale, approximately 10 days; for Pigweed plant response rating (0 to 100 scale): 125 g ai/ha
Excerpt: as §2, §3

[11] = system: barnyardgrass (Echinochloa crus-galli); assay: Test A postemergence, visual injury rating; settings: 0 is no effect, 100 is complete control; for Barnyardgrass plant response rating: 31 g ai/ha, 0 to 100 scale, approximately 10 days; for Barnyardgrass plant response rating (0 to 100 scale): 125 g ai/ha
Excerpt: as §2, §3

[12] = system: kochia (Kochia scoparia); assay: Test A postemergence, visual injury rating; settings: 0 is no effect, 100 is complete control; for Kochia plant response rating: 31 g ai/ha, 0 to 100 scale, approximately 10 days; for Kochia plant response rating (0 to 100 scale): 125 g ai/ha
Excerpt: as §2, §3

[13] = system: giant foxtail (Setaria faberii); assay: Test A postemergence, visual injury rating; settings: 0 is no effect, 100 is complete control; for Foxtail, Giant plant response rating: 31 g ai/ha, 0 to 100 scale, approximately 10 days; for Foxtail, Giant plant response rating (0 to 100 scale): 125 g ai/ha
Excerpt: as §2, §3

[14] = system: blackgrass (Alopecurus myosuroides); assay: Test A postemergence, visual injury rating; settings: 0 is no effect, 100 is complete control; for Blackgrass plant response rating: 31 g ai/ha, 0 to 100 scale, approximately 10 days; for Blackgrass plant response rating (0 to 100 scale): 125 g ai/ha
Excerpt: as §2, §3

[15] = system: ragweed (common ragweed, Ambrosia elatior); assay: Test A preemergence, visual injury rating; settings: for Plant response rating, Ragweed: 31 g ai/ha, 0 to 100 scale, 0 no effect, 100 complete control; for Ragweed plant response rating: 125 g ai/ha, 0 to 100 scale (0 no effect, 100 complete control)
Excerpt: as §2, §3

[16] = system: Italian ryegrass (Lolium multiflorum); assay: Test A preemergence, visual injury rating; settings: for Plant response rating, Ryegrass, Italian: 31 g ai/ha, 0 to 100 scale, 0 no effect, 100 complete control; for Ryegrass, Italian plant response rating: 125 g ai/ha, 0 to 100 scale (0 no effect, 100 complete control)
Excerpt: as §2, §3

[17] = system: pigweed (Amaranthus retroflexus); assay: Test A preemergence, visual injury rating; settings: for Plant response rating, Pigweed: 31 g ai/ha, 0 to 100 scale, 0 no effect, 100 complete control; for Pigweed plant response rating: 125 g ai/ha, 0 to 100 scale (0 no effect, 100 complete control)
Excerpt: as §2, §3

[18] = system: barnyardgrass (Echinochloa crus-galli); assay: Test A preemergence, visual injury rating; settings: for Plant response rating, Barnyardgrass: 31 g ai/ha, 0 to 100 scale, 0 no effect, 100 complete control; for Barnyardgrass plant response rating: 125 g ai/ha, 0 to 100 scale (0 no effect, 100 complete control)
Excerpt: as §2, §3

[19] = system: kochia (Kochia scoparia); assay: Test A preemergence, visual injury rating; settings: for Plant response rating, Kochia: 31 g ai/ha, 0 to 100 scale, 0 no effect, 100 complete control; for Kochia plant response rating: 125 g ai/ha, 0 to 100 scale (0 no effect, 100 complete control)
Excerpt: as §2, §3

[20] = system: giant foxtail (Setaria faberii); assay: Test A preemergence, visual injury rating; settings: for Plant response rating, Foxtail, Giant: 31 g ai/ha, 0 to 100 scale, 0 no effect, 100 complete control; for Foxtail, Giant plant response rating: 125 g ai/ha, 0 to 100 scale (0 no effect, 100 complete control)
Excerpt: as §2, §3

| SMILES | Plant response rating, Sedge, Umbrella [1] | Plant response rating, Rice [2] | Plant response rating, Barnyardgrass [3] | Plant response rating, Ducksalad [4] | Galium plant response rating [5] | Galium plant response rating (0 to 100 scale) [5] | Ragweed plant response rating [6] | Ragweed plant response rating (0 to 100 scale) [6] | Corn plant response rating [7] | Corn plant response rating (0 to 100 scale) [7] | Wheat plant response rating [8] | Wheat plant response rating (0 to 100 scale) [8] | Ryegrass, Italian plant response rating [9] | Ryegrass, Italian plant response rating (0 to 100 scale) [9] | Pigweed plant response rating [10] | Pigweed plant response rating (0 to 100 scale) [10] | Barnyardgrass plant response rating [11] | Barnyardgrass plant response rating (0 to 100 scale) [11] | Kochia plant response rating [12] | Kochia plant response rating (0 to 100 scale) [12] | also measured |
| --- | --- | --- | --- | --- | --- | --- | --- | --- | --- | --- | --- | --- | --- | --- | --- | --- | --- | --- | --- | --- | --- |
| CC(C)COC(=O)c1c(Br)cccc1Oc1ncc(Cl)cn1 [Compound 1] | 80 | 0 | 0 | 20 | 50 | 70 | 0 | 10 | 0 | 20 | 0 | 0 | 0 | 0 | 40 | 70 | 20 | 30 | 20 | 30 | Foxtail, Giant plant response rating [13]: 30; Foxtail, Giant plant response rating (0 to 100 scale) [13]: 60; Blackgrass plant response rating [14]: 0; Blackgrass plant response rating (0 to 100 scale) [14]: 20; Plant response rating, Ragweed [15]: 0; Ragweed plant response rating [15]: 0; Plant response rating, Ryegrass, Italian [16]: 0; Ryegrass, Italian plant response rating [16]: 0; Plant response rating, Pigweed [17]: 20; Pigweed plant response rating [17]: 70; Plant response rating, Barnyardgrass [18]: 20; Barnyardgrass plant response rating [18]: 30; Plant response rating, Kochia [19]: 0; Kochia plant response rating [19]: 40; Plant response rating, Foxtail, Giant [20]: 30; Foxtail, Giant plant response rating [20]: 70 |
| C=C(Cl)COC(=O)c1c(Br)cccc1Oc1ncc(Cl)cn1 [Compound 2] | 100 | 0 | 0 | 30 | 60 | 90 | 0 | 0 | 10 | 20 | 0 | 0 | 0 | 20 | 60 | 80 | 30 | 40 | 50 | 90 | Foxtail, Giant plant response rating [13]: 30; Foxtail, Giant plant response rating (0 to 100 scale) [13]: 60; Blackgrass plant response rating [14]: 0; Blackgrass plant response rating (0 to 100 scale) [14]: 30; Plant response rating, Ragweed [15]: 0; Ragweed plant response rating [15]: 0; Plant response rating, Ryegrass, Italian [16]: 0; Ryegrass, Italian plant response rating [16]: 10; Plant response rating, Pigweed [17]: 40; Pigweed plant response rating [17]: 90; Plant response rating, Barnyardgrass [18]: 10; Barnyardgrass plant response rating [18]: 50; Plant response rating, Kochia [19]: 30; Kochia plant response rating [19]: 70; Plant response rating, Foxtail, Giant [20]: 70; Foxtail, Giant plant response rating [20]: 100 |
